This is an account of results in patent US20080044455A1, “Tonsillitus Treatment” (priority 2006, published 2008).

This test concerns tonsils, throat and back of the mouth. Kind of test: topical application of lactic acid (diluted in a liquid carrier such as juice) to tonsils, throat and back of the mouth. Type of test: in vivo, human. How it is done: In one aspect, a mixture of 10% by volume of pharmaceutical lactic acid is mixed with 90% by volume liquid carrier, such as juice, and the mixture is ingested 3 times a day for a month at a dosage of one teaspoon (approximately 0.005 liters) per application. After a two week pause, the patient is evaluated for the reduction in size of the tonsils. […] The number of applications per day can be reduced to two times a day, in the event that it is hard to implement with the patient, thus extending the duration of the treatment by 10 days.
In one aspect, the mixture or solution is ingested, such as by repeatedly drinking, as at step 50, over a period of time such as a week, to topically apply the mixture or solution constituents to the surfaces of the tonsils, throat and/or mouth, at least twice, with a duration of time between the two applications.

Consider `CC(O)C(=O)O` (stereo not drawn) [lactic acid, Lactic Acid], for which, for the setting “topical application to tonsils, throat and mouth”, the “size of the tonsils” value is “reduction of the size of the tonsils”. For the same molecule, the “recurrence of the inflammation and infection causing the inflammation” value (topical application, lactic acid diluted in a liquid carrier such as a juice) was “reduction in the recurrence of the inflammation and infection”. For the same molecule, the “inflammation and pain in the treated areas” value (topical application, lactic acid diluted in a liquid carrier such as a juice, drunk or otherwise applied) is “reduction of both inflammation and pain in the treated areas”.
